From PMC4891710, “Unexpected involvement of staple leads to redesign of selective bicyclic peptide inhibitor of Grb7” (Scientific Reports, 2016)
Entries after “also recorded” stand apart in the source; their conditions may differ. Where two headings read alike, the source gives them in different places. Positions of bridges follow the written chain, without caps; N, C: chain ends. Non-standard residues stand in square brackets, D forms with d. Residues, ends and D or L forms follow the SMILES beside them. Ser(allyl) = C=CCOC[C@H](N)C(=O)O

Columns and labels:
Grb7-SH2 domain [1] = target: T1, Grb7-SH2 domain (Homo sapiens, UniProt Q14451); experiment: SPR binding of G7 peptides to GST-Grb7-SH2 domain; conditions: for Kd: KD (equilibrium dissociation constant), steady-state equilibrium, single-site model, 50 mM sodium phosphate, 150 mM NaCl, 1 mM DTT, pH 7.4, 25 °C; for Bmax (maximum binding signal): fit to single-site saturation model
Grb2-SH2 domain = target: T2, Grb2-SH2 domain (Homo sapiens, UniProt P62993); experiment: SPR binding of G7-B4 to GST-Grb2-SH2 domain
T2 construct: Grb2-SH2 (encoding residues 58–160); made in house; host or cells: E. coli BL21 (DE3) pLysS
From the text: (§1) Previous studies have established the preferential binding of the G7-18NATE peptide to Grb7-SH2 over closely related SH2 domains (Grb10- and Grb14-SH2 domains that share 67% and 65% identity respectively, to the Grb7-SH2 and Grb2-SH2 (~26% identity) domain that shares the pYXN peptide recognition motif)[26]. In order to determine whether the bicyclic peptide G7-B4 retains its specificity for the Grb7-SH2 domain we measured the binding of G7-B4 to Grb2-, Grb10- and Grb14-SH2 domains using SPR. […] Therefore the binding of G7-B4 to Grb2-, Grb10- and Grb14-SH2 is over 130 times weaker than binding to Grb7-SH2 domain, showing that G7-B4 is highly specific for the Grb7-SH2 domain.
(§2) The pGEX2T plasmids with inserts containing Grb7-SH2 (encoding residues 415–532), Grb2-SH2 (encoding residues 58–160), Grb10-SH2 (encoding residues 471–594) and Grb14-SH2 (encoding residues 426–540) were kindly provided by Dr. Roger Daly. Glutathion-S-Transferase (GST)-Grb2-SH2, GST-Grb7-SH2, Grb-10-SH2 and GST-Grb14-SH2 were all expressed and purified as previously described. […] The free Grb7-SH2 used in crystallography was expressed as a GST-fusion protein and was purified by GST affinity, followed by thrombin cleavage to liberate free Grb7-SH2, and then purified by cation exchange chromatography, and size exclusion chromatography as previously described. […]

Grb14-SH2 domain = target: T3, Grb14-SH2 domain (Homo sapiens, UniProt Q14449); experiment: SPR binding of G7-B4 to GST-Grb14-SH2 domain
T3 construct: Grb14-SH2 (encoding residues 426–540); made in house; host or cells: E. coli BL21 (DE3) pLysS
T3 sequence (Q14449 426-540): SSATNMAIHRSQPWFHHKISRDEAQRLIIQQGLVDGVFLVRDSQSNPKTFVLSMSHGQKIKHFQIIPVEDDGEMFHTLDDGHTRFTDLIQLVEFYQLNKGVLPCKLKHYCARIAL
From the text: as §1, §2

Grb10-SH2 domain = target: T4, Grb10-SH2 domain (Homo sapiens, UniProt Q13322); experiment: SPR binding of G7-B4 to Grb10-SH2 domain
T4 construct: Grb10-SH2 (encoding residues 471–594); made in house; host or cells: E. coli BL21 (DE3) pLysS
T4 sequence (Q13322 471-594): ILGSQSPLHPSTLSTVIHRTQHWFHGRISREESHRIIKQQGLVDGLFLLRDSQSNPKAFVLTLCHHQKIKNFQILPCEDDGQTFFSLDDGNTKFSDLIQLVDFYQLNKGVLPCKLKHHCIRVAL
From the text: as §1, §2

Grb7-SH2 domain [2] = target: T1, Grb7-SH2 domain; parameters: Grb7-SH2 (encoding residues 415–532); made in house; host or cells: E. coli BL21 (DE3) pLysS; conditions: previously determined by ITC; cited from earlier work
GST-Grb7-SH2 [3] = target: T5, GST-Grb7-SH2 (UniProt Q14451 415-532); experiment: SPR; BIAcore T100; GST-SH2 proteins captured on anti-GST antibody on a CM5 chip, GST on the control cells; peptides 0-100 uM injected 60 s at 30 uL/min; 50 mM sodium phosphate, 150 mM NaCl, 1 mM DTT, pH 7.4; 25 C; KD from steady-state curves, single-site model; conditions: both partners purified
T5 construct: pGEX2T insert; GST fusion used in SPR, captured by an anti-GST antibody; also called Grb7-SH2 domain

GST-Grb7-SH2 [4] = target: T5, GST-Grb7-SH2; experiment: as above; conditions: both partners purified; remark: listed apart in the source
[5] = SPR, no curvature up to 100 μM, saturation well below 50%

T1 sequence (Q14451 415-532): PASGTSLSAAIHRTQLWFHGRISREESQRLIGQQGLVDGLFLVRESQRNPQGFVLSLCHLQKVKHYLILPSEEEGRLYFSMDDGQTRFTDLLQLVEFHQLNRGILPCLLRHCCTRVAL
T5 sequence (Q14451 415-532): as above
T2 sequence (P62993 58-160): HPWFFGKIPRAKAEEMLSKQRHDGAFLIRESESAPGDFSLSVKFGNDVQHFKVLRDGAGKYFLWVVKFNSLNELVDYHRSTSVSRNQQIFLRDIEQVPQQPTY

With “CH3-CO-NH2-(XFEGYDNX)-CONH2 where X = O-allylserine (Ac-[Ser(allyl)]FEGYDN[Ser(allyl)]-NH2; staple 1-8; SMILES CC(=O)N[C@H]1COCC=CCOC[C@@H](C(N)=O)NC(=O)[C@H](CC(N)=O)NC(=O)[C@H](CC(=O)O)NC(=O)[C@H](Cc2ccc(O)cc2)NC(=O)CNC(=O)[C@H](CCC(=O)O)NC(=O)[C@H](Cc2ccccc2)NC1=O) [Peptide G7-B1NT]” the “binding to Grb7-SH2 domain (in words)” value (Grb7-SH2 domain [1]; SPR, peptide up to 100 μM) was “very weak binding; also recorded: dramatically reduced affinity”.

For `NC(=O)C[C@@H]1NC(=O)[C@H](CC(=O)O)NC(=O)[C@H](Cc2ccc(O)cc2)NC(=O)CNC(=O)[C@H](CCC(=O)O)NC(=O)[C@H](Cc2ccccc2)NC(=O)[C@@H]2COCC=CCOC[C@H](NC1=O)C(=O)N[C@H](C(N)=O)CSCC(=O)N2` [Peptide G7-B4] ({CH2CO}-[Ser(allyl)]FEGYDN[Ser(allyl)]C-NH2; staple 1-8; thioether N-9), the Kd (Grb2-SH2 domain; [5]) was over 100 µM, the “times weaker binding than to Grb7-SH2 domain” value (from here on “times weaker binding than”) (Grb2-SH2 domain; selectivity Grb7-SH2 over Grb2-SH2) was “over 130 times” and the Kd (Grb14-SH2 domain; [5]) was over 100 µM. The “times weaker binding than” value (Grb14-SH2 domain; selectivity Grb7-SH2 over Grb14-SH2) was “over 130 times”, the Kd (Grb10-SH2 domain; [5]) was over 100 µM and the “times weaker binding than” value (Grb10-SH2 domain; selectivity Grb7-SH2 over Grb10-SH2) was “over 130 times”.

In the case of `NC(=O)C[C@@H]1NC(=O)[C@H](CC(=O)O)NC(=O)[C@H](Cc2ccc(O)cc2)NC(=O)CNC(=O)[C@H](CCC(=O)O)NC(=O)[C@H](Cc2ccccc2)NC(=O)[C@@H]2COCC=CCOC[C@H](NC1=O)C(=O)N1CCC[C@H]1C(=O)N[C@H](C(N)=O)CSCC(=O)N2` [Peptide G7-B3] ({CH2CO}-[Ser(allyl)]FEGYDN[Ser(allyl)]PC-NH2; staple 1-8; thioether N-10), the Kd (Grb7-SH2 domain [1]; SPR) is reported as 4.9 ± 0.03 µM, the “Bmax (maximum binding signal)” value (Grb7-SH2 domain [1]; SPR) is reported as 53.47 ± 0.02 RU and the “times weaker affinity compared to G7-B1” value (Grb7-SH2 domain [1]; ratio of SPR KD values) is reported as “approximately 3 times”.

For `C=CCOC[C@@H]1NC(=O)CSC[C@@H](C(N)=O)NC(=O)[C@H](COCC=C)NC(=O)[C@H](CC(N)=O)NC(=O)[C@H](CC(=O)O)NC(=O)[C@H](Cc2ccc(O)cc2)NC(=O)CNC(=O)[C@H](CCC(=O)O)NC(=O)[C@H](Cc2ccccc2)NC1=O` [Peptide G7-B4NS] ({CH2CO}-[Ser(allyl)]FEGYDN[Ser(allyl)]C-NH2; thioether N-9), the Kd (Grb7-SH2 domain [1]; SPR) was 4.9 µM, the “Bmax (maximum binding signal)” value (Grb7-SH2 domain [1]; SPR) was 34.78 ± 0.01 RU and the “fold loss in binding affinity compared to G7-B4” value (Grb7-SH2 domain [1]; ratio of SPR KD values) was 6 fold.

In the case of `NC(=O)C[C@@H]1NC(=O)[C@H](CC(=O)O)NC(=O)[C@H](Cc2ccc(O)cc2)NC(=O)CNC(=O)[C@H](CCC(=O)O)NC(=O)[C@H](Cc2ccccc2)NC(=O)[C@@H]2COCC=CCOC[C@H](NC1=O)C(=O)N[C@@H](Cc1ccccc1)C(=O)N1CCC[C@H]1C(=O)N[C@H](C(N)=O)CSCC(=O)N2` [Peptide G7-B1] ({CH2CO}-[Ser(allyl)]FEGYDN[Ser(allyl)]FPC-NH2; staple 1-8; thioether N-11), the Kd (Grb7-SH2 domain [2]) is listed as 1.9 µM.

B1: G7-B4NS (cyclo-(CH2CO-(XFEGYDNXC)-CONH2 where X = O-allylserine), without ring closing metathesis (peptide)
chain: {CH2CO}-[Ser(allyl)]FEGYDN[Ser(allyl)]C-NH2
modifications: thioether N-9
SMILES: C=CCOC[C@@H]1NC(=O)CSC[C@@H](C(N)=O)NC(=O)[C@H](COCC=C)NC(=O)[C@H](CC(N)=O)NC(=O)[C@H](CC(=O)O)NC(=O)[C@H](Cc2ccc(O)cc2)NC(=O)CNC(=O)[C@H](CCC(=O)O)NC(=O)[C@H](Cc2ccccc2)NC1=O
In the case of B1, the Kd (GST-Grb7-SH2 [3]) is reported as 4.93 µM.

Molecule {CH2CO}-[Ser(allyl)]FEGYDN[Ser(allyl)]C-NH2 (staple 1-8; thioether N-9) [G7-B4 (cyclo-(CH2CO-(XFEGYDNXC)-CONH2 where X = O-allylserine)] has a Kd (GST-Grb7-SH2 [3]) of 0.83 µM and a koff (GST-Grb7-SH2 [4]) of about 0.25 s⁻¹.

B2: G7-B1 (cyclo-(CH2CO-(XFEGYDNXFPC)-CONH2 where X = O-allylserine) (peptide)
chain: {CH2CO}-[Ser(allyl)]FEGYDN[Ser(allyl)]FPC-NH2
modifications: staple 1-8; thioether N-11
SMILES: NC(=O)C[C@@H]1NC(=O)[C@H](CC(=O)O)NC(=O)[C@H](Cc2ccc(O)cc2)NC(=O)CNC(=O)[C@H](CCC(=O)O)NC(=O)[C@H](Cc2ccccc2)NC(=O)[C@@H]2COCC=CCOC[C@H](NC1=O)C(=O)N[C@@H](Cc1ccccc1)C(=O)N1CCC[C@H]1C(=O)N[C@H](C(N)=O)CSCC(=O)N2
B2 showed a Kd (GST-Grb7-SH2 [3]) of 1.5 µM and a koff (GST-Grb7-SH2 [4]) of about 0.21 s⁻¹.
